Data reported in patent US4194006A, “Therapeutic application of acetyl-d,l-carnitine and other acyl derivatives of d,l-carnitine” (priority 1977, dated 1980).
Like-named read-outs stand apart in the source and are kept apart here.

Key:
[1] = in vivo; conditions: mouse, in vivo, iv
Source text: The tolerance of acetyl-d,l-carnitine and of the other aforementioned acyl derivatives of the formula (I), as well as their salts were investigated by comparing the LD50 obtained by administering the compounds intravenously in mice with the LD50 obtained under the same experimental conditions by intravenous injection of d,l-carnitine.

[2] = system: isolated rabbit hearts; experiment: cardiokinetic effect on isolated heart (Langendorff): contractile force after anoxia, positive inotropic effect; conditions: 10 minutes from interruption of anoxic period
How it was run: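 Rabbit hearts were perfused Langendorff-style with oxygenated Ringer at 38.2 °C. Anoxia was applied until contractile force dropped by 80%, then the hearts were reoxygenated with or without compound. Contractile force was expressed as a percentage 10 min after the anoxic period ended.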

[3] = system: isolated rabbit hearts; experiment: coronary vasodilator effect: coronary flow, isolated heart (Langendorff)
How it was run: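 Langendorff-perfused isolated rabbit hearts in oxygenated Ringer at 38.2° C; anoxia imposed until contractile force fell by 80%, then reoxygenated with or without test compound. Coronary flow, isometric contraction and ECG recorded by polygraph.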

[4] = system: isolated rat atrium; experiment: antiarrhythmic effect, isolated rat atrium method of M. Libonati and G. Segre; conditions: Rattus norvegicus; for inhibition at 0.1 µg/mL / activation at 0.1 µg/mL: 1·10^-4 g/lt; for inhibition at 0.1 µg/mL / inhibition at 0.01 µg/mL / inhibition at 0.001 µg/mL: decrease; for activation at 0.1 µg/mL / activation at 0.01 µg/mL / activation at 0.001 µg/mL: increase; for inhibition at 0.01 µg/mL / activation at 0.01 µg/mL: 1·10^-5 g/lt; for inhibition at 0.001 µg/mL / activation at 0.001 µg/mL: 1·10^-6 g/lt
[5] = system: female rats; experiment: antifatigue effect: rota-rod; type: in vivo, rat; conditions: Rattus norvegicus, ip, 0.25 h, read-out: percentage of animals staying on the rota-rod more than 180 seconds; for responders at 300 mg/kg: 300 mg/kg i.p.; for responders at 400 mg/kg: 400 mg/kg i.p.; for responders at 600 mg/kg: 600 mg/kg i.p.
How it was run: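 Female rats dosed intraperitoneally in saline, with controls given saline alone. Every 15 min after treatment animals were placed on a 6 cm rod rotating at 16 r.p.m. Value is the percentage of animals staying on the rod for more than 180 s, per session.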

[6] = read-out: Mean percent variation versus controls: excitability (-%)
[7] = read-out: Mean percent variation versus controls: frequency max (-%)
[8] = read-out: Mean percent variation versus controls: refractory period (+%)
[9] = read-out: Mean percent variation versus controls: rheobase (+%)
[10] = session 6 (every 15 minutes), * p < 0.05

Structure (SMILES): CCCCCCCCCCCCCCCCCC(=O)OC(CC(=O)[O-])C[N+](C)(C)C (racemic) [stearoyl-d,l-carnitine]
- LD50 [1]: ~745 mg/kg
- Contractile force, Mean ± S.E. ([2]; 1·10^-5 g/lt): 32.8 ± 3.01%
- Contractile force, Mean ± S.E. ([2]; 1·10^-6 g/lt): 27.1 ± 3.18%
- Contractile force, Mean ± S.E. ([2]; 5·10^-6 g/lt): 27.5 ± 4.09%
- Coronary flow, Mean ± S.E. ([3]; 1·10^-5 g/lt): 81.05 ± 6.27%
- Coronary flow, Mean ± S.E. ([3]; 1·10^-6 g/lt): 80.21 ± 8.78%
- Coronary flow, Mean ± S.E. ([3]; 5·10^-6 g/lt): 77.30 ± 11.8%
- inhibition at 0.1 µg/mL [4, 6]: 12.3%
- inhibition at 0.1 µg/mL [4, 7]: 3.5%
- activation at 0.1 µg/mL [4, 8]: 24.6%
- activation at 0.1 µg/mL [4, 9]: 2.08%
- inhibition at 0.01 µg/mL [4, 6]: 0%
- inhibition at 0.01 µg/mL [4, 7]: 1.92%
- activation at 0.01 µg/mL [4, 8]: 16.2%
- activation at 0.01 µg/mL [4, 9]: 3.84%
- inhibition at 0.001 µg/mL [4, 6]: 0%
- inhibition at 0.001 µg/mL [4, 7]: 0%
- activation at 0.001 µg/mL [4, 8]: 15.6%
- activation at 0.001 µg/mL [4, 9]: 1.85%
- responders at 300 mg/kg ([5]; session 1 (every 15 minutes)): 0%
- responders at 300 mg/kg ([5]; session 2 (every 15 minutes)): 0%
- responders at 300 mg/kg ([5]; session 3 (every 15 minutes)): 0%
- responders at 300 mg/kg ([5]; session 4 (every 15 minutes)): 10%
- responders at 300 mg/kg ([5]; session 5 (every 15 minutes)): 10%
- responders at 300 mg/kg ([5]; session 6 (every 15 minutes)): 10%
- responders at 400 mg/kg ([5]; session 1 (every 15 minutes)): 0%
- responders at 400 mg/kg ([5]; session 2 (every 15 minutes)): 0%
- responders at 400 mg/kg ([5]; session 3 (every 15 minutes)): 0%
- responders at 400 mg/kg ([5]; session 4 (every 15 minutes)): 10%
- responders at 400 mg/kg ([5]; session 5 (every 15 minutes)): 20%
- responders at 400 mg/kg [5, 10]: 20%
- responders at 600 mg/kg ([5]; session 1 (every 15 minutes)): 0%
- responders at 600 mg/kg ([5]; session 2 (every 15 minutes)): 10%
- responders at 600 mg/kg ([5]; session 3 (every 15 minutes)): 10%
- responders at 600 mg/kg ([5]; session 4 (every 15 minutes)): 20%
- responders at 600 mg/kg ([5]; session 5 (every 15 minutes)): 20%
- responders at 600 mg/kg [5, 10]: 20%
